# According to the supplement of paper PMC10307832:
# Assays:
# Experiment in all cases: relative viability (nuclei count vs DMSO), 5 days (fraction); higher = more cells survive
# Bleomycin + Foretinib = compound: CC1=C(N=C(N=C1N)[C@H](CC(=O)N)NC[C@@H](C(=O)N)N)C(=O)N[C@@H]([C@H](C2=CN=CN2)OC3C(C(C(C(O3)CO)O)O)OC4C(C(C(C(O4)CO)O)OC(=O)N)O)C(=O)N[C@H](C)[C@H]([C@H](C)C(=O)N[C@@H]([C@@H](C)O)C(=O)NCCC5=NC(=CS5)C6=NC(=CS6)C(=O)NCCC[S+](C)C)O [Bleomycin] + COc1cc2c(Oc3ccc(NC(=O)C4(C(=O)Nc5ccc(F)cc5)CC4)cc3F)ccnc2cc1OCCCN1CCOCC1 [Foretinib] (partner 0.25 µM); settings: main component drawn
# Outline: (§1)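 Values are medians from duplicate plates. Each reflects relative viability, defined as the nuclei count of treated wells over that of vehicle wells. Lung cancer cell lines in 1536-well plates were pin-tool dosed one day after seeding with one drug alone or with a fixed anchor-drug dose plus five library-drug doses (not always all listed) in √10 steps, then fixed, stained and imaged at 4× after 5 days.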
# Bleomycin + Vorinostat = compound: CC1=C(N=C(N=C1N)[C@H](CC(=O)N)NC[C@@H](C(=O)N)N)C(=O)N[C@@H]([C@H](C2=CN=CN2)OC3C(C(C(C(O3)CO)O)O)OC4C(C(C(C(O4)CO)O)OC(=O)N)O)C(=O)N[C@H](C)[C@H]([C@H](C)C(=O)N[C@@H]([C@@H](C)O)C(=O)NCCC5=NC(=CS5)C6=NC(=CS6)C(=O)NCCC[S+](C)C)O [Bleomycin] + O=C(CCCCCCC(=O)Nc1ccccc1)NO [Vorinostat] (partner 1 µM); settings: main component drawn
# Outline: as §1
# Etoposide + Trametinib = compound: COc1cc([C@@H]2c3cc4c(cc3[C@@H](O[C@@H]3O[C@@H]5CO[C@@H](C)O[C@H]5[C@H](O)[C@H]3O)[C@H]3COC(=O)[C@H]23)OCO4)cc(OC)c1O [Etoposide] + CC(=O)Nc1cccc(-n2c(=O)n(C3CC3)c(=O)c3c(Nc4ccc(I)cc4F)n(C)c(=O)c(C)c32)c1 [Trametinib] (partner 0.02 µM)
# Outline: as §1
# Etoposide + Navitoclax = compound: COc1cc([C@@H]2c3cc4c(cc3[C@@H](O[C@@H]3O[C@@H]5CO[C@@H](C)O[C@H]5[C@H](O)[C@H]3O)[C@H]3COC(=O)[C@H]23)OCO4)cc(OC)c1O [Etoposide] + CC1(C)CCC(c2ccc(Cl)cc2)=C(CN2CCN(c3ccc(C(=O)NS(=O)(=O)c4ccc(N[C@H](CCN5CCOCC5)CSc5ccccc5)c(S(=O)(=O)C(F)(F)F)c4)cc3)CC2)C1 [Navitoclax] (partner 0.5 µM)
# Outline: as §1
Cell Line,relative viability (Bleomycin + Foretinib; first compound 0.01 µM),relative viability (Bleomycin + Foretinib; first compound 0.03162 µM),relative viability (Bleomycin + Foretinib; first compound 0.1 µM),relative viability (Bleomycin + Foretinib; first compound 0.3162 µM),relative viability (Bleomycin + Foretinib; first compound 1 µM),relative viability (Bleomycin + Vorinostat; first compound 0.01 µM),relative viability (Bleomycin + Vorinostat; first compound 0.03162 µM),relative viability (Bleomycin + Vorinostat; first compound 0.1 µM),relative viability (Bleomycin + Vorinostat; first compound 0.3162 µM),relative viability (Bleomycin + Vorinostat; first compound 1 µM),relative viability (Etoposide + Trametinib; first compound 0.01 µM),relative viability (Etoposide + Trametinib; first compound 0.03162 µM),relative viability (Etoposide + Trametinib; first compound 0.1 µM),relative viability (Etoposide + Trametinib; first compound 0.3162 µM),relative viability (Etoposide + Trametinib; first compound 1 µM),relative viability (Etoposide + Navitoclax; first compound 0.03162 µM),relative viability (Etoposide + Navitoclax; first compound 0.1 µM),relative viability (Etoposide + Navitoclax; first compound 0.3162 µM),relative viability (Etoposide + Navitoclax; first compound 1 µM),relative viability (Etoposide + Navitoclax; first compound 0.01 µM)
LCLC-97TM1,0.912,0.809,0.628,0.274,0.176,0.179,0.15,0.18,0.106,0.0733,0.22,0.218,0.174,0.126,0.115,0.62,0.327,0.178,0.141,
LK-2,0.803,0.779,0.743,0.36,0.285,0.232,0.281,0.217,0.209,0.195,0.688,0.861,0.498,0.438,0.2,0.945,0.643,0.498,0.267,0.815
LOU-NH91,0.781,0.663,0.649,0.4,0.309,0.718,0.544,0.508,0.387,0.345,0.731,0.817,0.659,0.758,0.552,0.654,0.504,0.464,0.329,0.695
LU99A,0.683,0.64,0.503,0.297,0.19,0.394,0.392,0.353,0.207,0.125,0.493,0.672,0.391,0.312,0.206,0.898,0.45,0.311,0.189,0.828
LXF-289,0.933,0.888,0.804,0.36,0.14,0.723,0.718,0.614,0.331,0.167,0.742,0.705,0.71,0.531,0.2,0.971,0.984,0.605,0.174,0.977
NCI-H23,0.699,0.586,0.408,0.247,0.218,0.264,0.316,0.219,0.123,0.127,0.299,0.342,0.309,0.265,0.24,0.816,0.502,0.421,0.254,0.733
NCI-H322M,0.79,0.951,0.865,0.563,0.401,0.815,0.888,0.818,0.577,0.647,0.531,0.564,0.469,0.457,0.47,1.37,1.01,0.886,0.574,1.29
NCI-H441,0.72,0.613,1.08,0.623,0.46,0.646,0.546,0.686,0.453,0.312,0.481,0.455,0.394,0.26,0.141,0.633,0.571,0.168,0.189,0.535
NCI-H460,0.68,0.651,0.283,0.0633,0.0375,0.4,0.221,0.158,0.0343,0.0306,0.173,0.14,0.0869,0.0497,0.021,0.796,0.6,0.0627,0.0154,0.93
NCI-H520,0.677,0.742,0.743,0.37,0.537,0.592,0.743,0.589,0.574,0.416,0.597,0.645,0.414,0.617,0.49,1,1.08,0.951,0.956,0.985
NCI-H596,0.586,0.629,0.464,0.354,0.247,0.479,0.438,0.438,0.22,0.293,0.7,0.965,0.772,0.727,0.646,0.989,,0.87,0.642,0.977
NCI-H647,0.482,0.308,0.212,0.0979,0.073,0.205,0.132,0.105,0.0704,0.0607,0.309,0.546,0.351,0.405,0.134,1.18,0.961,0.261,0.241,0.936
NCI-H727,0.902,0.711,0.641,,0.705,1.18,1.17,1.08,0.618,0.93,0.395,0.43,0.378,0.338,0.355,0.553,0.369,0.488,0.319,0.439
NCI-H838,0.617,0.368,0.274,0.201,0.204,0.571,0.41,0.274,0.267,0.265,0.463,0.502,0.378,0.406,0.253,1.14,1.19,0.705,0.338,1.09
